Test results taken from ChEMBL document CHEMBL4609974, “Triazole derivatives and their antiplasmodial and antimalarial activities” (Eur J Med Chem, 2019).
In brackets after ≈: the same amount, converted by molar mass.

What was measured:
Plasmodium falciparum [1] = assay: Antimalarial activity against chloroquine-sensitive Plasmodium falciparum D6; format: functional, organism-based
Plasmodium falciparum [2] = assay: Antimalarial activity against chloroquine-resistant Plasmodium falciparum W2; format: functional, organism-based
Plasmodium falciparum [3] = assay: Antimalarial activity against chloroquine-resistant Plasmodium falciparum K1; format: functional, organism-based
Plasmodium falciparum [4] = assay: Antimalarial activity against […] Plasmodium falciparum W2; format: functional, organism-based
Plasmodium falciparum [5] = assay: Antimalarial activity against chloroquine-resistant Plasmodium falciparum […]; format: functional, organism-based
Plasmodium falciparum [6] = assay: Antimalarial activity against chloroquine-sensitive Plasmodium falciparum 3D7; format: functional, organism-based
PC-3 = assay: Cytotoxicity against human PC3 cells assessed as reduction in cell viability; format: functional, cell-based
Enterococcus faecalis = assay: Antimicrobial activity against Enterococcus faecalis; format: functional
Staphylococcus aureus = assay: Antimicrobial activity against Staphylococcus aureus; format: functional
[7] = Selectivity index, ratio of CC50 for human MRC5 cells assessed as reduction in cell viability to MIC for […]; format: toxicity; details: read-out: Selectivity Index
[8] = Selectivity index, ratio of CC50 for human MRC5 cells assessed as reduction in cell viability to MIC for chloroquine-resistant Plasmodium falciparum K1; format: toxicity; details: read-out: Selectivity Index
MRC5 = assay: Cytotoxicity against human MRC5 cells assessed as reduction in cell viability; format: functional

Structure (SMILES) | IC50 (Plasmodium falciparum [1]) | IC50 (Plasmodium falciparum [2]) | IC50 (Plasmodium falciparum [3]) | also measured
COc1ccc(OCc2cn(CCNc3ccnc4cc(Cl)ccc34)nn2)cc1 | 0.9 to 11.5 µM | 0.9 to 11.5 µM |  | 
Clc1ccc2c(NCCn3cc(COc4ccc5ccccc5c4)nn3)ccnc2c1 | 0.9 to 11.5 µM | 0.9 to 11.5 µM |  | 
COc1cccc(-n2cc(CNc3ccc4nc(-c5ccccc5)c(-c5ccccc5)nc4c3)nn2)c1 |  |  | 7.1 to 153 µM | 
Cc1cccc(OCc2cn(CCNc3ccnc4cc(Cl)ccc34)nn2)c1 | 0.9 to 11.5 µM | 0.9 to 11.5 µM |  | 
Clc1ccc2c(NCCCn3cc(COc4ccc5ccccc5c4)nn3)ccnc2c1 | 0.59 to 4.71 µM | 0.59 to 4.71 µM |  | 
Clc1ccc2c(NCCn3cc(COc4c(Cl)cccc4Cl)nn3)ccnc2c1 | 0.9 to 11.5 µM | 0.9 to 11.5 µM |  | 
O=C(CSc1nnc(Cc2ccccc2)n1-c1ccccc1)N1CCc2ccccc21 |  | 4.59 µM |  | IC50 (Plasmodium falciparum [4]): 4.59 µM
Fc1ccc(-n2cc(CNc3ccc4nc(-c5ccccc5)c(-c5ccccc5)nc4c3)nn2)cc1 |  |  | 7.1 to 153 µM | 
COc1cccc(-n2cc(CN(Cc3cn(-c4cccc(OC)c4)nn3)c3ccc4nc(-c5ccc(F)cc5)c(-c5ccc(F)cc5)nc4c3)nn2)c1 |  |  | 9.76 to 3540 µM | 
Fc1ccc(-c2nc3ccc(N(Cc4cn(-c5ccccc5)nn4)Cc4cn(-c5ccccc5)nn4)cc3nc2-c2ccc(F)cc2)cc1 |  |  | 9.76 to 3540 µM | 
Cc1nnc(Cn2cc(C(=O)NNC(=S)Nc3ccccc3)c(=O)c3cc(F)c(Cl)cc32)n1N |  |  |  | IC50 (Plasmodium falciparum [5]): 3.91 µM
OC1(c2cn(CCNc3ccnc4cc(Cl)ccc34)nn2)CCCCC1 | 0.9 to 11.5 µM | 0.9 to 11.5 µM |  | 
OC1(c2cn(CCCNc3ccnc4cc(Cl)ccc34)nn2)CCCCC1 | 0.59 to 4.71 µM | 0.59 to 4.71 µM |  | 
OCc1cn(CCNc2ccnc3cc(Cl)ccc23)nn1 | 0.9 to 11.5 µM | 0.9 to 11.5 µM |  | 
Cc1ccc(OCc2cn(CCNc3ccnc4cc(Cl)ccc34)nn2)cc1C | 0.9 to 11.5 µM | 0.9 to 11.5 µM |  | 
COc1ccc2cc3[n+](cc2c1OCc1cn(-c2ccc(S(=O)(=O)N4CCOCC4)cc2)nn1)CCc1cc2c(cc1-3)OCO2 |  |  |  | IC50 (Plasmodium falciparum [6]): 0.142 to 28 µM
Cc1nnc(Cn2cc(C(=O)NNC(=O)Nc3ccccc3)c(=O)c3cc(F)c(Cl)cc32)n1N |  |  |  | IC50 (Plasmodium falciparum [5]): 3.89 µM
CC(=O)c1ccc(OCc2cn(CCNc3ccnc4cc(Cl)ccc34)nn2)cc1 | 0.9 to 11.5 µM | 0.9 to 11.5 µM |  | 
Clc1ccc2c(NCCn3cc(COc4ccc(Br)cc4)nn3)ccnc2c1 | 0.9 to 11.5 µM | 0.9 to 11.5 µM |  | 
Cc1ccc(-n2cc(CNc3ccc4nc(-c5ccccc5)c(-c5ccccc5)nc4c3)nn2)cc1 |  |  | 7.1 to 153 µM | 

Structure (SMILES) | IC50 (Plasmodium falciparum [1]) | IC50 (Plasmodium falciparum [2]) | IC50 (Plasmodium falciparum [3]) | also measured
O=[N+]([O-])c1cccc(-n2cc(CN(Cc3cn(-c4cccc([N+](=O)[O-])c4)nn3)c3ccc4nc(-c5ccccc5)c(-c5ccccc5)nc4c3)nn2)c1 |  |  | 9.76 to 3540 µM | 
FC(F)(F)c1cccc(-n2cc(CNc3ccc4nc(-c5ccccc5)c(-c5ccccc5)nc4c3)nn2)c1 |  |  | 7.1 to 153 µM | 
c1ccc(-c2nc3ccc(N(Cc4cn(-c5ccccc5)nn4)Cc4cn(-c5ccccc5)nn4)cc3nc2-c2ccccc2)cc1 |  |  | 9.76 to 3540 µM | 
CC(=O)c1ccc(OCc2cn(CCCNc3ccnc4cc(Cl)ccc34)nn2)cc1 | 0.59 µM | 1.14 µM |  | 
Cc1cc(OCc2cn(CCNc3ccnc4cc(Cl)ccc34)nn2)ccc1Cl | 0.9 to 11.5 µM | 0.9 to 11.5 µM |  | 
COc1ccc2cc3[n+](cc2c1OCc1cn(-c2ccc(S(=O)(=O)Nc4ccc([N+](=O)[O-])cc4)cc2)nn1)CCc1cc2c(cc1-3)OCO2 |  |  |  | IC50 (Plasmodium falciparum [6]): 0.142 to 28 µM
FC(F)(F)c1cccc(-n2cc(CN(Cc3cn(-c4cccc(C(F)(F)F)c4)nn3)c3ccc4nc(-c5ccccc5)c(-c5ccccc5)nc4c3)nn2)c1 |  |  | 9.76 to 3540 µM | 
COc1ccc(NS(=O)(=O)c2ccc(-n3cc(COc4c(OC)ccc5cc6[n+](cc45)CCc4cc5c(cc4-6)OCO5)nn3)cc2)cc1 |  |  |  | IC50 (Plasmodium falciparum [6]): 0.142 to 28 µM
Fc1ccc(-n2cc(CN(Cc3cn(-c4ccc(F)cc4)nn3)c3ccc4nc(-c5ccccc5)c(-c5ccccc5)nc4c3)nn2)cc1 |  |  | 9.76 to 3540 µM | 
COc1cccc(-n2cc(CN(Cc3cn(-c4cccc(OC)c4)nn3)c3ccc4nc(-c5ccccc5)c(-c5ccccc5)nc4c3)nn2)c1 |  |  | 9.76 to 3540 µM | 
O=C(c1cn(CCNc2ccnc3cc(Cl)ccc23)nn1)C1CCCCO1 (stereo not given) | 0.9 to 11.5 µM | 0.9 to 11.5 µM |  | 
COc1ccc2cc3[n+](cc2c1OCc1cn(-c2ccc(S(=O)(=O)Nc4ccc(F)cc4)cc2)nn1)CCc1cc2c(cc1-3)OCO2 |  |  |  | IC50 (Plasmodium falciparum [6]): 0.142 to 28 µM
COc1ccc2cc3[n+](cc2c1OCc1cn(-c2ccc(S(=O)(=O)Nc4ccc(Cl)cc4)cc2)nn1)CCc1cc2c(cc1-3)OCO2 |  |  |  | IC50 (PC-3): 0.142 µM; IC50 (Plasmodium falciparum [6]): 0.142 to 28 µM
O=[N+]([O-])c1ccc(OCc2cn(CCNc3ccnc4cc(Cl)ccc34)nn2)cc1 | 0.9 to 11.5 µM | 0.9 to 11.5 µM |  | 
Fc1ccc(-c2nc3ccc(N(Cc4cn(-c5cccc(C(F)(F)F)c5)nn4)Cc4cn(-c5cccc(C(F)(F)F)c5)nn4)cc3nc2-c2ccc(F)cc2)cc1 |  |  | 9.76 to 3540 µM | 
O=C(CSc1nnc(Cc2ccccc2)n1-c1ccc(Cl)cc1)N1CCc2ccccc21 |  | 48.8 µM |  | IC50 (Plasmodium falciparum [4]): 48.8 µM
Fc1ccc(-c2nc3ccc(NCc4cn(-c5ccccc5)nn4)cc3nc2-c2ccc(F)cc2)cc1 |  |  | 7.1 to 153 µM | 
COc1ccc2cc3[n+](cc2c1OCc1cn(-c2ccc(S(=O)(=O)N4CCN(C)CC4)cc2)nn1)CCc1cc2c(cc1-3)OCO2 |  |  |  | IC50 (Plasmodium falciparum [6]): 0.142 to 28 µM
COc1ccc2cc3[n+](cc2c1OCc1cn(-c2ccc(S(=O)(=O)N4CCCCC4)cc2)nn1)CCc1cc2c(cc1-3)OCO2 |  |  |  | IC50 (Plasmodium falciparum [6]): 0.142 to 28 µM
CC(C)c1ccc(OCc2cn(CCNc3ccnc4cc(Cl)ccc34)nn2)cc1 | 0.9 to 11.5 µM | 0.9 to 11.5 µM |  | 

Structure (SMILES) | IC50 (Plasmodium falciparum [1]) | IC50 (Plasmodium falciparum [2]) | IC50 (Plasmodium falciparum [3]) | also measured
COc1ccc2cc3[n+](cc2c1OCc1cn(-c2ccc(S(N)(=O)=O)cc2)nn1)CCc1cc2c(cc1-3)OCO2 |  |  |  | IC50 (Plasmodium falciparum [6]): 0.142 to 28 µM
OCc1cn(CCCNc2ccnc3cc(Cl)ccc23)nn1 | 0.59 to 4.71 µM | 0.59 to 4.71 µM |  | 
Fc1ccc(-c2nc3ccc(NCc4cn(-c5cccc(C(F)(F)F)c5)nn4)cc3nc2-c2ccc(F)cc2)cc1 |  |  | 7.1 to 153 µM | 
CC[C@H]1OC(=O)C[C@@H](O)[C@H](C)C(O[C@@H]2O[C@H](C)[C@@H](O)[C@H](N(C)C)[C@H]2O)C(CC=O)C[C@@H](C)C(=N\OCc2cn(-c3cnc4ccccc4c3)nn2)/C=C/C(C)=C/[C@@H]1CO[C@@H]1O[C@H](C)[C@@H](O)[C@@H](OC)[C@H]1OC (stereo not given in full) |  |  | 2 µg/mL | MIC (Enterococcus faecalis): 0.5 to 1 µg/mL (≈ 0.502 to 1 µM); MIC (Staphylococcus aureus): 0.5 to 1 µg/mL (≈ 0.502 to 1 µM)
Cc1ccc(OCc2cn(CCNc3ccnc4cc(Cl)ccc34)nn2)cc1 | 0.9 to 11.5 µM | 0.9 to 11.5 µM |  | 
COc1ccc2cc3[n+](cc2c1OCc1cn(-c2ccc(S(=O)(=O)Nc4ccccc4)cc2)nn1)CCc1cc2c(cc1-3)OCO2 |  |  |  | IC50 (Plasmodium falciparum [6]): 0.142 to 28 µM
Cc1ccc(-n2cc(CNc3ccc4nc(-c5ccc(F)cc5)c(-c5ccc(F)cc5)nc4c3)nn2)cc1 |  |  | 7.1 to 153 µM | 
COc1ccc2cc3[n+](cc2c1OCc1cn(-c2ccc(S(=O)(=O)Nc4ccc(Br)cc4)cc2)nn1)CCc1cc2c(cc1-3)OCO2 |  |  |  | IC50 (Plasmodium falciparum [6]): 0.142 to 28 µM
Fc1ccc(-c2nc3ccc(N(Cc4cn(-c5ccc(F)cc5)nn4)Cc4cn(-c5ccc(F)cc5)nn4)cc3nc2-c2ccc(F)cc2)cc1 |  |  | 9.76 to 3540 µM | 
O=[N+]([O-])c1cccc(-n2cc(CNc3ccc4nc(-c5ccc(F)cc5)c(-c5ccc(F)cc5)nc4c3)nn2)c1 |  |  | 7.1 to 153 µM | 
CC[C@H]1OC(=O)C[C@@H](O)[C@H](C)C(O[C@@H]2O[C@H](C)[C@@H](O)[C@H](N(C)C)[C@H]2O)C(CC=O)C[C@@H](C)C(=N\OCCCc2cn(-c3cnc4ccccc4c3)nn2)/C=C/C(C)=C/[C@@H]1CO[C@@H]1O[C@H](C)[C@@H](O)[C@@H](OC)[C@H]1OC (stereo not given in full) |  |  | 0.73 µg/mL | MIC (Enterococcus faecalis): 0.5 to 1 µg/mL (≈ 0.489 to 0.977 µM); selectivity ratio [7]: 59; selectivity ratio [8]: 59; MIC (Staphylococcus aureus): 0.5 to 1 µg/mL (≈ 0.489 to 0.977 µM); CC50 (MRC5): 43 µg/mL (≈ 42 µM)
O=[N+]([O-])c1cccc(-n2cc(CN(Cc3cn(-c4cccc([N+](=O)[O-])c4)nn3)c3ccc4nc(-c5ccc(F)cc5)c(-c5ccc(F)cc5)nc4c3)nn2)c1 |  |  | 9.76 to 3540 µM | 
Cc1ccc(-n2cc(CN(Cc3cn(-c4ccc(C)cc4)nn3)c3ccc4nc(-c5ccccc5)c(-c5ccccc5)nc4c3)nn2)cc1 |  |  | 9.76 to 3540 µM | 
c1ccc(-c2nc3ccc(NCc4cn(-c5ccccc5)nn4)cc3nc2-c2ccccc2)cc1 |  |  | 7.1 to 153 µM | 
Clc1ccc(OCc2cn(CCNc3ccnc4cc(Cl)ccc34)nn2)cc1 | 0.9 to 11.5 µM | 0.9 to 11.5 µM |  | 
Cc1ccc(-n2cc(CN(Cc3cn(-c4ccc(C)cc4)nn3)c3ccc4nc(-c5ccc(F)cc5)c(-c5ccc(F)cc5)nc4c3)nn2)cc1 |  |  | 9.76 to 3540 µM | 
COc1cccc(-n2cc(CNc3ccc4nc(-c5ccc(F)cc5)c(-c5ccc(F)cc5)nc4c3)nn2)c1 |  |  | 7.1 to 153 µM | 
O=[N+]([O-])c1cccc(-n2cc(CNc3ccc4nc(-c5ccccc5)c(-c5ccccc5)nc4c3)nn2)c1 |  |  | 7.1 to 153 µM | 
Fc1ccc(-c2nc3ccc(NCc4cn(-c5ccc(F)cc5)nn4)cc3nc2-c2ccc(F)cc2)cc1 |  |  | 7.1 to 153 µM | 
C[C@@H]1CC[C@H]2[C@@H](C)C(=O)O[C@@H]3O[C@@]4(C)CC[C@@H]1[C@]32OO4 [ARTEMISININ] | 0.03 µM | 0.25 µM |  | 
